In the NIST ThermoML archive (doi:10.1021/acs.jced.6b00542):

Assay: xn = mol fraction of the nth substance listed
Details: for speed of sound: 100 kPa, Frequency=3 MHz, Sing-around technique in a fixed-path interferometer; for speed of sound / viscosity / mass density: Liquid; for viscosity / mass density: 102 kPa; for viscosity: Concentric cylinders viscometry; for mass density: Vibrating tube method; for surface tension liquid-gas: 294.5 K, Pendant drop shape

CCCCc1ccccc1 [butylbenzene] + CCCCCCCCCC
Details | mass density [kg/m3] | speed of sound [m/s] | viscosity [mPa·s]
293.15 K, x1 = 0.1055 | 740.9 | 1259.2 | 0.917
293.15 K, x1 = 0.2096 | 752.3 | 1266.3 | 0.917
293.15 K, x1 = 0.3124 | 764.12 | 1273.8 | 0.921
293.15 K, x1 = 0.4141 | 776.38 | 1282.1 | 0.928
293.15 K, x1 = 0.5145 | 789.08 | 1291.3 | 0.94
293.15 K, x1 = 0.614 | 802.32 | 1301.1 | 0.957
293.15 K, x1 = 0.712 | 816.03 | 1312.2 | 0.981
293.15 K, x1 = 0.8094 | 830.38 | 1324.5 | 1
293.15 K, x1 = 0.9051 | 845.04 | 1338.2 | 1.03
293.15 K, x1 = 1 | 860.51 | 1353.7 | 1.05
303.15 K, x1 = 0.1055 | 733.32 | 1220.2 | 0.792
303.15 K, x1 = 0.2096 | 744.67 | 1227.4 | 0.794
303.15 K, x1 = 0.3124 | 756.43 | 1235 | 0.798
303.15 K, x1 = 0.4141 | 768.66 | 1243.5 | 0.805
303.15 K, x1 = 0.5145 | 781.31 | 1252.5 | 0.816
303.15 K, x1 = 0.614 | 794.51 | 1262.6 | 0.83
303.15 K, x1 = 0.712 | 808.16 | 1273.7 | 0.849
303.15 K, x1 = 0.8094 | 822.46 | 1286 | 0.866
303.15 K, x1 = 0.9051 | 837.07 | 1299.4 | 0.891
303.15 K, x1 = 1 | 852.49 | 1314.9 | 0.91
313.15 K, x1 = 0.1055 | 725.64 | 1181.5 | 0.693
313.15 K, x1 = 0.2096 | 736.97 | 1188.9 | 0.696
313.15 K, x1 = 0.3124 | 748.7 | 1196.6 | 0.7
313.15 K, x1 = 0.4141 | 760.89 | 1205.2 | 0.707
313.15 K, x1 = 0.5145 | 773.5 | 1214.3 | 0.716
313.15 K, x1 = 0.614 | 786.65 | 1224.4 | 0.727
313.15 K, x1 = 0.712 | 800.26 | 1235.6 | 0.743
313.15 K, x1 = 0.8094 | 814.51 | 1247.9 | 0.76
313.15 K, x1 = 0.9051 | 829.07 | 1261.2 | 0.781
313.15 K, x1 = 1 | 844.43 | 1276.6 | 0.801
323.15 K, x1 = 0.1055 | 717.94 | 1143.3 | 0.616
323.15 K, x1 = 0.2096 | 729.23 | 1150.8 | 0.619
323.15 K, x1 = 0.3124 | 740.92 | 1158.7 | 0.624
323.15 K, x1 = 0.4141 | 753.07 | 1167.3 | 0.63
323.15 K, x1 = 0.5145 | 765.64 | 1176.6 | 0.639
323.15 K, x1 = 0.614 | 778.75 | 1186.7 | 0.649
323.15 K, x1 = 0.712 | 792.31 | 1197.9 | 0.661
323.15 K, x1 = 0.8094 | 806.52 | 1210.2 | 0.677
323.15 K, x1 = 0.9051 | 821.03 | 1223.5 | 0.695
323.15 K, x1 = 1 | 836.34 | 1238.7 | 0.713
333.15 K, x1 = 0.1055 | 710.17 | 1105.6 | 0.547
333.15 K, x1 = 0.2096 | 721.43 | 1113.2 | 0.549
333.15 K, x1 = 0.3124 | 733.08 | 1121.2 | 0.555
333.15 K, x1 = 0.4141 | 745.19 | 1129.9 | 0.56
333.15 K, x1 = 0.5145 | 757.73 | 1139.3 | 0.568
333.15 K, x1 = 0.614 | 770.8 | 1149.5 | 0.577
333.15 K, x1 = 0.712 | 784.32 | 1160.7 | 0.589
333.15 K, x1 = 0.8094 | 798.48 | 1173 | 0.602
333.15 K, x1 = 0.9051 | 812.95 | 1186.3 | 0.618
333.15 K, x1 = 1 | 828.21 | 1201.4 | 0.636
343.15 K, x1 = 0.1055 | 702.3 | – | 0.488
343.15 K, x1 = 0.2096 | 713.5 | – | 0.492
343.15 K, x1 = 0.3124 | 725.1 | – | 0.496
343.15 K, x1 = 0.4141 | 737.2 | – | 0.502
343.15 K, x1 = 0.5145 | 749.7 | – | 0.509
343.15 K, x1 = 0.614 | 762.7 | – | 0.518
343.15 K, x1 = 0.712 | 776.1 | – | 0.528
343.15 K, x1 = 0.8094 | 790.3 | – | 0.54
343.15 K, x1 = 0.9051 | 804.7 | – | 0.554
343.15 K, x1 = 1 | 819.9 | – | 0.571
353.15 K, x1 = 0.1055 | 694.4 | – | 0.439
353.15 K, x1 = 0.2096 | 705.6 | – | 0.443
353.15 K, x1 = 0.3124 | 717.1 | – | 0.447
353.15 K, x1 = 0.4141 | 729.2 | – | 0.453
353.15 K, x1 = 0.5145 | 741.7 | – | 0.46
353.15 K, x1 = 0.614 | 754.6 | – | 0.467
353.15 K, x1 = 0.712 | 768 | – | 0.477
353.15 K, x1 = 0.8094 | 782.1 | – | 0.488
353.15 K, x1 = 0.9051 | 796.5 | – | 0.5
353.15 K, x1 = 1 | 811.7 | – | 0.516
363.15 K, x1 = 0.1055 | 686.4 | – | 0.399
363.15 K, x1 = 0.2096 | 697.5 | – | 0.402
363.15 K, x1 = 0.3124 | 709.1 | – | 0.407
363.15 K, x1 = 0.4141 | 721.1 | – | 0.412
363.15 K, x1 = 0.5145 | 733.5 | – | 0.419
363.15 K, x1 = 0.614 | 746.4 | – | 0.426
363.15 K, x1 = 0.712 | 759.9 | – | 0.434
363.15 K, x1 = 0.8094 | 773.9 | – | 0.444
363.15 K, x1 = 0.9051 | 788.3 | – | 0.456
363.15 K, x1 = 1 | 803.4 | – | 0.469
373.15 K, x1 = 0.1055 | 678.2 | – | 0.365
373.15 K, x1 = 0.2096 | 689.3 | – | 0.369
373.15 K, x1 = 0.3124 | 700.9 | – | 0.373
373.15 K, x1 = 0.4141 | 712.8 | – | 0.378
373.15 K, x1 = 0.5145 | 725.3 | – | 0.384
373.15 K, x1 = 0.614 | 738.2 | – | 0.391
373.15 K, x1 = 0.712 | 751.6 | – | 0.399
373.15 K, x1 = 0.8094 | 765.6 | – | 0.408
373.15 K, x1 = 0.9051 | 779.9 | – | 0.419
373.15 K, x1 = 1 | 795 | – | 0.43

Details | surface tension liquid-gas [mN/m]
x1 = 0.1055 | 23.9
x1 = 0.2096 | 24.3
x1 = 0.3124 | 24.6
x1 = 0.4141 | 24.9
x1 = 0.5145 | 25.4
x1 = 0.614 | 25.8
x1 = 0.712 | 26.5
x1 = 0.8094 | 26.7
x1 = 0.9051 | 27.9
